In US20250264397A1, “Light-field Flow Cytometer” (Georgia Tech Research Corporation, priority 2024, published 2025):

System: Jurkat cells
Experiment: Jurkat cell apoptosis induced by staurosporine (STS) treatment, imaged by light-field flow cytometry (LFC)
Assay type: cell-based, human
Settings: 1-μM STS
Experimental: Jurkat cell apoptosis induced by staurosporine (STS) treatment and staining. Jurkat T cells (e.g., #88042803, Sigma-Aldrich) were cultured in RPMI with 10% FBS and 1% Pen-Strep as a modified RPMI medium at 37° C. and in a 5% CO2 environment. On the imaging day, 1 μM of STS was added to 4 cell dishes, incubating for 30, 60, 120, and 300 min, respectively, at 37° C. The following procedures for preparing cells in the 4 dishes were the same. After the treatment, cells were centrifuged (e.g., 500× g, 6 min, 37° C.) and resuspended into the modified RPMI medium. After two rounds of centrifuge-washing, cells were resuspended into 6 mL of modified RPMI medium. For fluorescence labeling, 250 nM of SYTO16 green stains were added to the culture dish, and the cells were incubated for 1 hour. At the halfway of incubation (30 min), 150 nM of Mito Tracker Deep Red FM stains were added to the culture dish. After another 30 min, cells were centrifuged (e.g., 500× g, 6 min, 37° C.) and resuspended into 6 mL of the 4% PFA fixation buffer. Cells were fixed at room temperature for 12 min. After fixation, cells were centrifuged (800× g, 6 min, room temperature) and resuspended into PBS twice. Finally, cells were stored in PBS for imaging flow cytometry.
Imaging morphological changes in staurosporine-treated Jurkat cells. […]

For `CN[C@@H]1C[C@H]2O[C@@](C)([C@@H]1OC)n1c3ccccc3c3c4c(c5c6ccccc6n2c5c31)C(=O)NC4` [Staurosporine], the “cells showed apoptotic nuclei” value (after 5 h of treatment) was “over 53%” and the “Jurkat cell nuclear morphology” value (with the treatment period increased (30, 60, 120, 300 min)) was “reduced volumes and fragmented micronuclei”.
